Measured values: patent US20080161232A1, “C5a Receptor Antagonist” (JERINI AG, priority 2005, published 2008)
Starred links: 1 amine or outer side, 2 acyl side, 3 side chain; linkers in the order of their positions; H or OH if unused. Non-standard residues stand in square brackets, D forms with d. Residues, ends and D or L forms follow the SMILES beside them. *: point of attachment. Phe(3-Cl) = N[C@@H](Cc1cccc(Cl)c1)C(=O)O; Phe(4-F) = N[C@@H](Cc1ccc(F)cc1)C(=O)O; 1Nal = N[C@@H](Cc1cccc2ccccc12)C(=O)O; Bta = N[C@@H](Cc1csc2ccccc12)C(=O)O; d(hCha) = N[C@H](CCC1CCCCC1)C(=O)O; Hydrocinnamoyl = O=C(CCc1ccccc1)*; Hyp = O=C(O)[C@@H]1C[C@@H](O)CN1; Tic = O=C(O)[C@@H]1Cc2ccccc2CN1; dCha = N[C@H](CC1CCCCC1)C(=O)O; dChg = N[C@@H](C(=O)O)C1CCCCC1; Butoxycarbonyl = CCCCOC(=O)*; Phg = N[C@H](C(=O)O)c1ccccc1; Pip = O=C(O)[C@@H]1CCCCN1; Orn = NCCC[C@H](N)C(=O)O; Aze = O=C(O)[C@@H]1CCN1; CO = O=C([*:1])[*:2]; NHPh = c1ccc(N*)cc1; Ms = CS(=O)(=O)*

Biological target: T1, human C5aR(CD88) (Homo sapiens, UniProt P21730)
T1 construct: expressed in transfected cells; host or cells: rat basophilic leukemia cells (RBL)
T1 sequence (P21730 1-350): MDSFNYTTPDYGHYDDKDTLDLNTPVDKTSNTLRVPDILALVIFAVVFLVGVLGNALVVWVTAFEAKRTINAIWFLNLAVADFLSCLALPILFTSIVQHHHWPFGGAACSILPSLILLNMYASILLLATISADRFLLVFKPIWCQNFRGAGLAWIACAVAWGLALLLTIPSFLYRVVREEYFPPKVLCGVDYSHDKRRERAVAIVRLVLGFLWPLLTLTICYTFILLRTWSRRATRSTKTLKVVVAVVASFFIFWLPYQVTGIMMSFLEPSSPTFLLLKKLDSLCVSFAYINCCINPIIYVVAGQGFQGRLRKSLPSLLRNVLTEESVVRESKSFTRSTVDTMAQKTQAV
Experiment: Determination of the IC50 value in an enzyme release assay (functional assay, antagonistic activity)
Assay type: cell-based
Conditions: antagonistic activity; IC50 group in enzyme release assay, RBL cells expressing human C5aR(CD88); read-out: activity (group)

Compound	IC50 [nM]
CC(=O)NCCC[C@H](NC(=O)[C@H](Cc1ccccc1)NC(C)=O)C(=O)N1CCC[C@H]1C(=O)N[C@H](CC1CCCCC1)C(=O)N[C@@H](Cc1c[nH]c2ccccc12)C(=O)N[C@@H](Cc1ccccc1)C(N)=O [Compound 82, Ac-Phe-Orn(Ac)-Pro-cha-Trp-Phe-NH2] (Ac-F[Orn](Ac)P[dCha]WF-NH2)	50 to 200
NCCC[C@H](NC(=O)[C@H](Cc1ccccc1)NC(=O)Nc1ccccc1)C(=O)N1CCC[C@H]1C(=O)N[C@H](CC1CCCCC1)C(=O)N[C@@H](Cc1c[nH]c2ccccc12)C(=O)N[C@@H](Cc1ccccc1)C(N)=O [Compound 85, Ph-NH—CO-Phe-Orn-Pro-cha-Trp-Phe-NH2] ({NHPh-CO}-F[Orn]P[dCha]WF-NH2)	50 to 200
CCCCOC(=O)N[C@@H](Cc1ccccc1)C(=O)N[C@@H](CCCN)C(=O)N1CCC[C@H]1C(=O)N[C@H](CC1CCCCC1)C(=O)N[C@@H](Cc1c[nH]c2ccccc12)C(=O)N[C@@H](Cc1ccccc1)C(N)=O [Compound 86, Bu-O—CO-Phe-Orn-Pro-cha-Trp-Phe-NH2] (Butoxycarbonyl-F[Orn]P[dCha]WF-NH2)	200 to 2000
CC(=O)N[C@@H](Cc1ccccc1)C(=O)N[C@@H](CCCCN)C(=O)N1CCC[C@H]1C(=O)N[C@H](CC1CCCCC1)C(=O)N[C@@H](Cc1c[nH]c2ccccc12)C(=O)N[C@@H](Cc1ccccc1)C(N)=O [Compound 87, Ac-Phe-Lys-Pro-cha-Trp-Phe-NH2] (Ac-FKP[dCha]WF-NH2)	50 to 200
CC(=O)N[C@@H](Cc1ccccc1)C(=O)N[C@@H](CCC(N)=O)C(=O)N1CCC[C@H]1C(=O)N[C@H](CC1CCCCC1)C(=O)N[C@@H](Cc1c[nH]c2ccccc12)C(=O)N[C@@H](Cc1ccccc1)C(N)=O [Compound 89, Ac-Phe-Gln-Pro-cha-Trp-Phe-NH2] (Ac-FQP[dCha]WF-NH2)	200 to 2000
CC(=O)N[C@@H](Cc1ccccc1)C(=O)N[C@@H](CO)C(=O)N1CCC[C@H]1C(=O)N[C@H](CC1CCCCC1)C(=O)N[C@@H](Cc1c[nH]c2ccccc12)C(=O)N[C@@H](Cc1ccccc1)C(N)=O [Compound 90, Ac-Phe-Ser-Pro-cha-Trp-Phe-NH2] (Ac-FSP[dCha]WF-NH2)	200 to 2000
CC(=O)N[C@@H](Cc1ccccc1)C(=O)N[C@@H](CCC(=O)O)C(=O)N1CCC[C@H]1C(=O)N[C@H](CC1CCCCC1)C(=O)N[C@@H](Cc1c[nH]c2ccccc12)C(=O)N[C@@H](Cc1ccccc1)C(N)=O [Compound 91, Ac-Phe-Glu-Pro-cha-Trp-Phe-NH2] (Ac-FEP[dCha]WF-NH2)	200 to 2000
CC(=O)N[C@@H](Cc1ccccc1)C(=O)N[C@@H](CCCN)C(=O)N1CCCC[C@H]1C(=O)N[C@H](CC1CCCCC1)C(=O)N[C@@H](Cc1c[nH]c2ccccc12)C(=O)N[C@@H](Cc1ccccc1)C(N)=O [Compound 92, Ac-Phe-Orn-Pip-cha-Trp-Phe-NH2] (Ac-F[Orn][Pip][dCha]WF-NH2)	50 to 200
CC(=O)N[C@@H](Cc1ccccc1)C(=O)N[C@@H](CCCN)C(=O)N1C[C@H](O)C[C@H]1C(=O)N[C@H](CC1CCCCC1)C(=O)N[C@@H](Cc1c[nH]c2ccccc12)C(=O)N[C@@H](Cc1ccccc1)C(N)=O [Compound 93, Ac-Phe-Orn-Hyp-cha-Trp-Phe-NH2] (Ac-F[Orn][Hyp][dCha]WF-NH2)	200 to 2000
CC(=O)N[C@@H](Cc1ccccc1)C(=O)N[C@@H](CCCN)C(=O)N1CCC[C@H]1C(=O)N[C@H](CC1CCCCC1)C(=O)N[C@@H](Cc1c[nH]c2ccccc12)C(=O)N[C@@H](Cc1cccc2ccccc12)C(N)=O [Compound 94, Ac-Phe-Orn-Pro-cha-Trp-1Ni—NH2] (Ac-F[Orn]P[dCha]W[1Nal]-NH2)	20 to 50
CNC(=O)[C@H](Cc1ccccc1)NC(=O)[C@H](Cc1csc2ccccc12)NC(=O)[C@@H](CC1CCCCC1)NC(=O)[C@@H]1CCN1C(=O)[C@H](CCCN)NC(=O)[C@H](Cc1ccccc1)NC(C)=O [Compound 95, Ac-Phe-Orn-Aze-cha-Bta-Phe-NH—Me] (Ac-F[Orn][Aze][dCha][Bta]F-NHMe)	200 to 2000
CS(=O)(=O)N[C@@H](Cc1ccccc1)C(=O)N[C@@H](CCCN)C(=O)N1CC[C@H]1C(=O)N[C@H](CC1CCCCC1)C(=O)N[C@@H](Cc1csc2ccccc12)C(=O)N[C@@H](Cc1ccccc1)C(N)=O [Compound 96, CH3—SO2-Phe-Orn-Aze-cha-Bta-Phe-NH2] (Ms-F[Orn][Aze][dCha][Bta]F-NH2)	20 to 50
CC(=O)N[C@@H](Cc1ccccc1)C(=O)N[C@@H](CCCN)C(=O)N1CC[C@H]1C(=O)N[C@H](CC1CCCCC1)C(=O)N[C@@H](Cc1ccc(F)cc1)C(=O)N[C@@H](Cc1ccccc1)C(N)=O [Compound 99, Ac-Phe-Orn-Aze-cha-Pff-Phe-NH2] (Ac-F[Orn][Aze][dCha][Phe(4-F)]F-NH2)	50 to 200
CC(=O)N[C@@H](Cc1ccccc1)C(=O)N[C@@H](CCCN)C(=O)N1CC[C@H]1C(=O)N[C@H](CC1CCCCC1)C(=O)N[C@@H](Cc1cccc(Cl)c1)C(=O)N[C@@H](Cc1ccccc1)C(N)=O [Compound 100, Ac-Phe-Orn-Aze-cha-Mcf-Phe-NH2] (Ac-F[Orn][Aze][dCha][Phe(3-Cl)]F-NH2)	50 to 200
CC(=O)N[C@@H](Cc1ccccc1)C(=O)N[C@@H](CCCNC(=N)N)C(=O)N1CCC[C@H]1C(=O)N[C@H](CC1CCCCC1)C(=O)N[C@@H](Cc1c[nH]c2ccccc12)C(=O)N[C@@H](Cc1ccccc1)C(N)=O [Compound 104, Ac-Phe-Arg-Pro-cha-Trp-Phe-NH2] (Ac-FRP[dCha]WF-NH2)	50 to 200
NCCC[C@H](NC(=O)CCc1ccccc1)C(=O)N1CC[C@H]1C(=O)N[C@H](CC1CCCCC1)C(=O)N[C@@H](Cc1csc2ccccc12)C(=O)N[C@@H](Cc1ccccc1)C(N)=O [Compound 106, 3PP-Orn-Aze-cha-Bta-Phe-NH2] (Hydrocinnamoyl-[Orn][Aze][dCha][Bta]F-NH2)	50 to 200
CC(=O)N[C@@H](Cc1ccccc1)C(=O)N[C@@H](CCCN)C(=O)N1Cc2ccccc2C[C@H]1C(=O)N[C@H](CC1CCCCC1)C(=O)N[C@@H](Cc1c[nH]c2ccccc12)C(=O)N[C@@H](Cc1ccccc1)C(N)=O [Compound 107, Ac-Phe-Orn-Tic-cha-Trp-Phe-NH2] (Ac-F[Orn][Tic][dCha]WF-NH2)	50 to 200
CC(=O)N[C@@H](Cc1ccccc1)C(=O)N[C@@H](CCCN)C(=O)N[C@@H](CO)C(=O)N[C@H](CC1CCCCC1)C(=O)N[C@@H](Cc1c[nH]c2ccccc12)C(=O)N[C@@H](Cc1ccccc1)C(N)=O [Compound 108, Ac-Phe-Orn-Ser-cha-Trp-Phe-NH2] (Ac-F[Orn]S[dCha]WF-NH2)	20 to 50
CC(=O)N[C@@H](Cc1ccccc1)C(=O)N[C@@H](CCCN)C(=O)N1CCC[C@H]1C(=O)N[C@@H](C(=O)N[C@@H](Cc1c[nH]c2ccccc12)C(=O)N[C@@H](Cc1ccccc1)C(N)=O)C1CCCCC1 [Compound 109, Ac-Phe-Orn-Pro-chg-Trp-Phe-NH2] (Ac-F[Orn]P[dChg]WF-NH2)	50 to 200
CC(=O)N[C@@H](Cc1ccccc1)C(=O)N[C@@H](CCCN)C(=O)N1CCC[C@H]1C(=O)N[C@H](CCC1CCCCC1)C(=O)N[C@@H](Cc1c[nH]c2ccccc12)C(=O)N[C@@H](Cc1ccccc1)C(N)=O [Compound 110, Ac-Phe-Orn-Pro-hch-Trp-Phe-NH2] (Ac-F[Orn]P[d(hCha)]WF-NH2)	20 to 50
CC(=O)N[C@@H](Cc1ccccc1)C(=O)N[C@@H](CCCN)C(=O)N1CCC[C@H]1C(=O)N[C@H](CC1CCCCC1)C(=O)N[C@@H](Cc1c[nH]c2ccccc12)C(=O)N[C@H](C(N)=O)c1ccccc1 [Compound 111, Ac-Phe-Orn-Pro-cha-Trp-Phg-NH2] (Ac-F[Orn]P[dCha]W[Phg]-NH2)	200 to 2000
CC(=O)N[C@@H](Cc1ccccc1)C(=O)N[C@@H](Cc1csc2ccccc12)C(=O)N1CC[C@H]1C(=O)N[C@H](CC1CCCCC1)C(=O)N[C@@H](Cc1csc2ccccc12)C(=O)N[C@@H](Cc1ccccc1)C(N)=O [Compound 112, Ac-Phe-Bta-Aze-cha-Bta-Phe-NH2] (Ac-F[Bta][Aze][dCha][Bta]F-NH2)	20 to 50
CC(=O)N[C@@H](Cc1ccccc1)C(=O)N[C@@H](Cc1c[nH]c2ccccc12)C(=O)N1CCC[C@H]1C(=O)N[C@H](CC1CCCCC1)C(=O)N[C@@H](Cc1csc2ccccc12)C(=O)N[C@@H](Cc1ccccc1)C(N)=O [Compound 113, Ac-Phe-Trp-Pro-cha-Bta-Phe-NH2] (Ac-FWP[dCha][Bta]F-NH2)	50 to 200
CC(=O)N[C@@H](Cc1ccccc1)C(=O)N[C@@H](CCCN)C(=O)N1CCCC[C@H]1C(=O)N[C@H](CC1CCCCC1)C(=O)N[C@@H](Cc1c[nH]c2ccccc12)C(=O)N[C@@H](Cc1ccccc1)C(=O)O [Compound 115, Ac-Phe-Orn-Pip-cha-Trp-Phe-OH] (Ac-F[Orn][Pip][dCha]WF-OH)	200 to 2000
CC(=O)N[C@@H](Cc1ccccc1)C(=O)N[C@@H](CCCN)C(=O)N1Cc2ccccc2C[C@H]1C(=O)N[C@H](CC1CCCCC1)C(=O)N[C@@H](Cc1c[nH]c2ccccc12)C(=O)N[C@@H](Cc1ccccc1)C(=O)O [Compound 116, Ac-Phe-Orn-Tic-cha-Trp-Phe-OH] (Ac-F[Orn][Tic][dCha]WF-OH)	200 to 2000
CC(=O)N[C@@H](Cc1ccccc1)C(=O)N[C@@H](CCCN)C(=O)N[C@@H](CO)C(=O)N[C@H](CC1CCCCC1)C(=O)N[C@@H](Cc1c[nH]c2ccccc12)C(=O)N[C@@H](Cc1ccccc1)C(=O)O [Compound 117, Ac-Phe-Orn-Ser-cha-Trp-Phe-OH] (Ac-F[Orn]S[dCha]WF-OH)	200 to 2000
CC(=O)N[C@@H](Cc1ccccc1)C(=O)N[C@@H](CCCN)C(=O)N1CCC[C@H]1C(=O)N[C@@H](C(=O)N[C@@H](Cc1c[nH]c2ccccc12)C(=O)N[C@@H](Cc1ccccc1)C(=O)O)C1CCCCC1 [Compound 118, Ac-Phe-Orn-Pro-chg-Trp-Phe-OH] (Ac-F[Orn]P[dChg]WF-OH)	200 to 2000
